Results reported in US20050032124A1, “Identification of genotype-selective agents for treating Huntington's disease” (priority 2003, published 2005).

Legend:
Format in all cases: cell-based, human
[1] = test system: BJ-TERT/LT/ST/RAS^V12 cells; assay: Nuclear morphology assay; conditions: 18 hours
Source text: Applicants sought to characterize the type of cell death induced by CPT and erastin in tumorigenic BJ-TERT/LT/ST/RAS^V12 cells. […] To determine whether erastin or CPT induces apoptosis in their system, Applicants monitored the nuclear morphology of CPT- and erastin-treated tumorigenic cells using fluorescence microscopy. […] Since nuclear morphological change is required of apoptotic cells, Applicants conclude that cell death induced by erastin is non-apoptotic. […] Additionally, nuclei remained intact in erastin-treated tumor cells (FIG. 9).
200,000 tumorigenic BJ-TERT/LT/ST/RAS^V12 cells were seeded in 2 mL on glass coverslips in each well of a six-well dish, treated with nothing (NT), 9 μM erastin or 1.1 μM camptothecin (CPT) in growth medium for 18 hours while incubating at 37° C. with 5% CO2. Nuclei were stained with 25 μg/mL Hoechst 33342 (Molecular Probes) and viewed using an oil immersion 100× objective on a fluorescence microscope.

[2] = test system: BJ-TERT/LT/ST/RAS^V12 cells; assay: Block of compound-induced cell death by pan-caspase inhibitor; conditions: 50 μM Boc-Asp(Ome)-fluoromethyl ketone
[3] = test system: active, cleaved form of caspase 3; assay: Western blot for active caspase-3; conditions: BJ-TERT/LT/ST/RAS^V12 cells
Method: BJ-TERT/LT/ST/RAS^V12 cells were seeded prior to the experiment at 5×10^5 cells in 60 mm dishes. The cells were treated with 5 μg/ml erastin (9 μM) for 2, 4, 6, 8 or 10 hours. One dish was maintained for camptothecin treatment (0.4 μg/ml for 24 h) as a positive control. Cells were lysed after each time point in lysis buffer (50 mM HEPES KOH pH […] NaCl, 2 mM EDTA, 0.5% Triton X-100, 1.5 mM Na3VO4, 50 mM NaF, 10 mM sodium pyrophosphate, 10 mM sodium beta-glycerophosphate and protease inhibitor tablet (Roche)). Protein content was quantified using a Biorad protein assay reagent. Equal amounts of protein were resolved on 16% SDS-polyacrylamide gel. The electrophoresed proteins were transblotted onto a PVDF membrane, blocked with 5% milk and incubated with anti-active caspase-3 polyclonal antibody (BD Pharmingen) at 1:1500 dilution overnight at 4° C. The membrane was then incubated in anti-rabbit-HRP (Santa Cruz Biotechnology) at 1:3000 dilution for 1 hour and developed with an enhanced chemiluminescence mixture (NEN life science, Renaissance). To test for equivalent loading in each lane, blots were stripped, blocked, and probed with an anti-eIF-4E antibody (BD Transduction laboratories) at 1:1000 dilution.

**Q.** For `CC[C@@]1(O)C(=O)OCc2c1cc1n(c2=O)Cc2cc3ccccc3nc2-1` [Camptothecin], which “fragmented nuclei, % of total nuclei” value ([1]; 1.1 μM camptothecin) is on record?
**A.** 10-20%

**Q.** And the “nuclear morphology (karyorhexis and margination of chromatin)” value ([1]; 9 μM erastin or 1.1 μM CPT)?
**A.** karyorhexis and margination of chromatin were clearly visible

**Q.** What about the “cell death blocked by pan-caspase inhibitor” value [2] of the same compound?
**A.** partially blocked

**Q.** And the “activated caspase 3 (western blot)” value [3]?
**A.** harbor activated caspase 3
